Reference: article PMC7531004, “Discovery of gramicidin A analogues with altered activities by multidimensional screening of a one-bead-one-compound library” (Nature Communications, 2020)
Where a SMILES comes first, the peptide text is derived from it. [ ]: non-standard residue; d: D form. The star is where a group is joined. NHCH2CH2OH = OCCN*; For = O=C*

What was measured:
[1] = cell viability/%
Method in brief: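 First, library peptide stocks are diluted 250-fold in RPMI1640 with 10% heat-inactivated FBS. Next, they are mixed with P388 cells to give 1 × 10^4 cells/mL and incubated 92 h at 37 °C, 5% CO2. Finally, viability (%) is scored by WST-1 absorbance at 415 nm.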

[2] = H+/Na+ transport assay of bead-derived peptides (one-point); assay type: biochemical; design: key: relative activity; mean of two control wells = 1.00; details: bead-derived peptide solution, EYPC/EYPG LUVs;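 further: relative to parent gramicidin A activity set to 1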
Method in brief: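 Values are normalized fluorescence, with Triton X-100 defining 100% and untreated LUVs 0%, and the two control wells averaging 1.00. Vesicles carried 1.0 mM pyranine and included egg yolk phosphatidylglycerol. Peptides were incubated with them 30 min at room temperature.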

[3] = system: Streptococcus pyogenes SSI-9; assay: Antibacterial activity assay of bead-derived peptides (three concentrations); assay type: cell-based; design: key: +++: inhibition by the 640-fold diluted peptide solution; ++: inhibition by the 160-fold diluted solution; +: inhibition by the 40-fold diluted solution; -: no inhibition; details: S. pyogenes, bead-derived peptide solution, three concentrations
Method in brief: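 Three stock dilutions per peptide (none, 4-fold, 16-fold in DMSO) are screened in 96-well format. The medium is blood-supplemented cation-adjusted MHB, inoculated with 2 × 10^5 CFU S. pyogenes SSI-9. Growth is read as cell precipitation at 18 h, 37 °C.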

SMILES: CC(C)C[C@@H](NC(=O)[C@H](Cc1c[nH]c2ccccc12)NC(=O)[C@H](NC(=O)[C@H](Cc1c[nH]c2ccccc12)NC(=O)[C@H](NC(=O)[C@@H](NC(=O)[C@H](NC(=O)[C@H](C)NC(=O)[C@H](NC(=O)[C@H](C)NC(=O)CNC(=O)[C@@H](NC=O)C(C)C)C(C)C)[C@H](C)O)C(C)C)C(C)C)C(C)C)C(=O)N[C@@H](Cc1c[nH]c2ccccc12)C(=O)N[C@@H](C(=O)N[C@@H](Cc1c[nH]c2ccccc12)C(=O)NCCO)C(C)C [compound 7061] (For-VGA[dV]A[dT]V[dV]W[dV]W[dL]W[dV]W-NHCH2CH2OH)
- viability [1]: 100%
- H+/Na+ transport activity normalized against the value of 1 (1.00) [2]: 1.01
- antibacterial activity [3]: -

SMILES: CC(C)C[C@@H](NC(=O)[C@H](C)NC(=O)[C@H](NC(=O)[C@H](C)NC(=O)CNC(=O)[C@@H](NC=O)C(C)C)C(C)C)C(=O)N[C@H](C(=O)N[C@@H](C(=O)N[C@@H](Cc1c[nH]c2ccccc12)C(=O)N[C@H](CC(C)C)C(=O)N[C@@H](Cc1c[nH]c2ccccc12)C(=O)N[C@H](CC(C)C)C(=O)N[C@@H](Cc1c[nH]c2ccccc12)C(=O)N[C@H](CC(C)C)C(=O)N[C@@H](Cc1c[nH]c2ccccc12)C(=O)NCCO)[C@H](C)O)C(C)C [compound 3956] (For-VGA[dV]A[dL]V[dT]W[dL]W[dL]W[dL]W-NHCH2CH2OH)
- viability [1]: 100%
- H+/Na+ transport activity normalized against the value of 1 (1.00) [2]: 1.12
- antibacterial activity [3]: +

SMILES: CC(C)C[C@@H](NC(=O)[C@H](C)NC(=O)CNC(=O)[C@@H](NC=O)C(C)C)C(=O)N[C@@H](C)C(=O)N[C@@H](C(=O)N[C@H](C(=O)N[C@@H](C(=O)N[C@@H](Cc1c[nH]c2ccccc12)C(=O)N[C@H](CC(C)C)C(=O)N[C@@H](Cc1c[nH]c2ccccc12)C(=O)N[C@@H](C(=O)N[C@@H](Cc1c[nH]c2ccccc12)C(=O)N[C@@H](C(=O)N[C@@H](Cc1c[nH]c2ccccc12)C(=O)NCCO)[C@H](C)O)C(C)C)C(C)C)C(C)C)C(C)C [compound 7010] (For-VGA[dL]A[dV]V[dV]W[dL]W[dV]W[dT]W-NHCH2CH2OH)
- viability [1]: 100%
- H+/Na+ transport activity normalized against the value of 1 (1.00) [2]: 1.07
- antibacterial activity [3]: +

SMILES: CC(C)C[C@@H](NC(=O)[C@H](C)NC(=O)CNC(=O)[C@@H](NC=O)C(C)C)C(=O)N[C@@H](C)C(=O)N[C@@H](C(=O)N[C@H](C(=O)N[C@@H](C(=O)N[C@@H](Cc1c[nH]c2ccccc12)C(=O)N[C@@H](C(=O)N[C@@H](Cc1c[nH]c2ccccc12)C(=O)N[C@@H](C(=O)N[C@@H](Cc1c[nH]c2ccccc12)C(=O)N[C@H](CC(C)C)C(=O)N[C@@H](Cc1c[nH]c2ccccc12)C(=O)NCCO)C(C)C)[C@H](C)O)C(C)C)C(C)C)C(C)C [compound 2207] (For-VGA[dL]A[dV]V[dV]W[dT]W[dV]W[dL]W-NHCH2CH2OH)
- viability [1]: 100%
- H+/Na+ transport activity normalized against the value of 1 (1.00) [2]: 1.18
- antibacterial activity [3]: -

SMILES: CC(C)C[C@@H](NC(=O)[C@H](C)NC(=O)[C@H](NC(=O)[C@H](C)NC(=O)CNC(=O)[C@@H](NC=O)C(C)C)C(C)C)C(=O)N[C@H](C(=O)N[C@@H](C(=O)N[C@@H](Cc1c[nH]c2ccccc12)C(=O)N[C@@H](C(=O)N[C@@H](Cc1c[nH]c2ccccc12)C(=O)N[C@@H](C(=O)N[C@@H](Cc1c[nH]c2ccccc12)C(=O)N[C@H](CC(C)C)C(=O)N[C@@H](Cc1c[nH]c2ccccc12)C(=O)NCCO)C(C)C)C(C)C)C(C)C)C(C)C [compound 437] (For-VGA[dV]A[dL]V[dV]W[dV]W[dV]W[dL]W-NHCH2CH2OH)
- viability [1]: 100%
- H+/Na+ transport activity normalized against the value of 1 (1.00) [2]: 1.11
- antibacterial activity [3]: +

SMILES: CNC(=O)C[C@@H](NC(=O)[C@@H](NC(=O)[C@@H](CC(C)C)NC(=O)[C@H](C)NC(=O)[C@H](NC(=O)[C@H](C)NC(=O)CNC(=O)[C@@H](NC=O)C(C)C)C(C)C)C(C)C)C(=O)N[C@@H](Cc1c[nH]c2ccccc12)C(=O)N[C@@H](C(=O)N[C@@H](Cc1c[nH]c2ccccc12)C(=O)N[C@@H](C(=O)N[C@@H](Cc1c[nH]c2ccccc12)C(=O)N[C@H](CC(C)C)C(=O)N[C@@H](Cc1c[nH]c2ccccc12)C(=O)NCCO)C(C)C)C(C)C [compound 5991] (For-VGA[dV]A[dL]V[dD](NHMe)W[dV]W[dV]W[dL]W-NHCH2CH2OH)
- viability [1]: 94.7%
- H+/Na+ transport activity normalized against the value of 1 (1.00) [2]: 1.00
- antibacterial activity [3]: -

SMILES: CC(C)C[C@@H](NC(=O)[C@H](C)NC(=O)[C@H](NC(=O)[C@H](C)NC(=O)CNC(=O)[C@@H](NC=O)C(C)C)C(C)C)C(=O)N[C@H](C(=O)N[C@@H](C(=O)N[C@@H](Cc1c[nH]c2ccccc12)C(=O)N[C@@H](C(=O)N[C@@H](Cc1c[nH]c2ccccc12)C(=O)N[C@@H](C(=O)N[C@@H](Cc1c[nH]c2ccccc12)C(=O)N[C@@H](C(=O)N[C@@H](Cc1c[nH]c2ccccc12)C(=O)NCCO)C(C)C)C(C)C)C(C)C)[C@H](C)O)C(C)C [compound 3492] (For-VGA[dV]A[dL]V[dT]W[dV]W[dV]W[dV]W-NHCH2CH2OH)
- viability [1]: 100%
- H+/Na+ transport activity normalized against the value of 1 (1.00) [2]: 1.12
- antibacterial activity [3]: -

SMILES: CC(C)C[C@@H](NC(=O)[C@H](C)NC(=O)[C@H](NC(=O)[C@H](C)NC(=O)CNC(=O)[C@@H](NC=O)C(C)C)C(C)C)C(=O)N[C@H](C(=O)N[C@@H](C(=O)N[C@@H](Cc1c[nH]c2ccccc12)C(=O)N[C@@H](C(=O)N[C@@H](Cc1c[nH]c2ccccc12)C(=O)N[C@H](CC(C)C)C(=O)N[C@@H](Cc1c[nH]c2ccccc12)C(=O)N[C@H](CC(C)C)C(=O)N[C@@H](Cc1c[nH]c2ccccc12)C(=O)NCCO)C(C)C)C(C)C)C(C)C [compound 1406] (For-VGA[dV]A[dL]V[dV]W[dV]W[dL]W[dL]W-NHCH2CH2OH)
- viability [1]: 91.1%
- H+/Na+ transport activity normalized against the value of 1 (1.00) [2]: 1.04
- antibacterial activity [3]: +

SMILES: CC(C)C[C@@H](NC(=O)[C@H](C)NC(=O)CNC(=O)[C@@H](NC=O)C(C)C)C(=O)N[C@@H](C)C(=O)N[C@@H](C(=O)N[C@H](C(=O)N[C@H](CC(C)C)C(=O)N[C@@H](Cc1c[nH]c2ccccc12)C(=O)N[C@@H](C(=O)N[C@@H](Cc1c[nH]c2ccccc12)C(=O)N[C@@H](C(=O)N[C@@H](Cc1c[nH]c2ccccc12)C(=O)N[C@H](CC(C)C)C(=O)N[C@@H](Cc1c[nH]c2ccccc12)C(=O)NCCO)[C@H](C)O)C(C)C)C(C)C)C(C)C [compound 201] (For-VGA[dL]A[dV]V[dL]W[dV]W[dT]W[dL]W-NHCH2CH2OH)
- viability [1]: 100%
- H+/Na+ transport activity normalized against the value of 1 (1.00) [2]: 1.06
- antibacterial activity [3]: -

SMILES: CNC(=O)C[C@@H](NC(=O)[C@H](Cc1c[nH]c2ccccc12)NC(=O)[C@H](NC(=O)[C@H](Cc1c[nH]c2ccccc12)NC(=O)[C@@H](CC(C)C)NC(=O)[C@H](Cc1c[nH]c2ccccc12)NC(=O)[C@H](NC(=O)[C@@H](NC(=O)[C@@H](CC(C)C)NC(=O)[C@H](C)NC(=O)[C@H](NC(=O)[C@H](C)NC(=O)CNC(=O)[C@@H](NC=O)C(C)C)C(C)C)C(C)C)C(C)C)C(C)C)C(=O)N[C@@H](Cc1c[nH]c2ccccc12)C(=O)NCCO [compound 2425] (For-VGA[dV]A[dL]V[dV]W[dL]W[dV]W[dD](NHMe)W-NHCH2CH2OH)
- viability [1]: 100%
- H+/Na+ transport activity normalized against the value of 1 (1.00) [2]: 1.07
- antibacterial activity [3]: -

SMILES: CNC(=O)C[C@@H](NC(=O)[C@H](C)NC(=O)CNC(=O)[C@@H](NC=O)C(C)C)C(=O)N[C@@H](C)C(=O)N[C@@H](C(=O)N[C@H](C(=O)N[C@@H](C(=O)N[C@@H](Cc1c[nH]c2ccccc12)C(=O)N[C@H](CC(C)C)C(=O)N[C@@H](Cc1c[nH]c2ccccc12)C(=O)N[C@H](CC(C)C)C(=O)N[C@@H](Cc1c[nH]c2ccccc12)C(=O)N[C@@H](C(=O)N[C@@H](Cc1c[nH]c2ccccc12)C(=O)NCCO)C(C)C)C(C)C)C(C)C)C(C)C [compound 11200] (For-VGA[dD](NHMe)A[dV]V[dV]W[dL]W[dL]W[dV]W-NHCH2CH2OH)
- viability [1]: 66%
- H+/Na+ transport activity normalized against the value of 1 (1.00) [2]: 1.06
- antibacterial activity [3]: -

SMILES: CC(C)C[C@@H](NC(=O)[C@H](C)NC(=O)CNC(=O)[C@@H](NC=O)C(C)C)C(=O)N[C@@H](C)C(=O)N[C@@H](C(=O)N[C@H](C(=O)N[C@H](CC(C)C)C(=O)N[C@@H](Cc1c[nH]c2ccccc12)C(=O)N[C@H](CC(C)C)C(=O)N[C@@H](Cc1c[nH]c2ccccc12)C(=O)N[C@H](CC(C)C)C(=O)N[C@@H](Cc1c[nH]c2ccccc12)C(=O)N[C@@H](C(=O)N[C@@H](Cc1c[nH]c2ccccc12)C(=O)NCCO)C(C)C)C(C)C)[C@H](C)O [compound 8288] (For-VGA[dL]A[dT]V[dL]W[dL]W[dL]W[dV]W-NHCH2CH2OH)
- viability [1]: 47.4%
- H+/Na+ transport activity normalized against the value of 1 (1.00) [2]: 1.02
- antibacterial activity [3]: -

SMILES: CNC(=O)C[C@@H](NC(=O)[C@H](Cc1c[nH]c2ccccc12)NC(=O)[C@@H](CC(C)C)NC(=O)[C@H](Cc1c[nH]c2ccccc12)NC(=O)[C@H](NC(=O)[C@H](Cc1c[nH]c2ccccc12)NC(=O)[C@@H](CC(C)C)NC(=O)[C@@H](NC(=O)[C@@H](CC(C)C)NC(=O)[C@H](C)NC(=O)[C@@H](CC(C)C)NC(=O)[C@H](C)NC(=O)CNC(=O)[C@@H](NC=O)C(C)C)C(C)C)[C@H](C)O)C(=O)N[C@@H](Cc1c[nH]c2ccccc12)C(=O)NCCO [compound 13033] (For-VGA[dL]A[dL]V[dL]W[dT]W[dL]W[dD](NHMe)W-NHCH2CH2OH)
- viability [1]: 100%
- H+/Na+ transport activity normalized against the value of 1 (1.00) [2]: 1.01
- antibacterial activity [3]: -
